Assay results published in PMC9481636, “Mechanism of action of non-camptothecin inhibitor Genz-644282 in topoisomerase I inhibition” (Communications Biology, 2022).
Residue numbers refer to the chain shown, from its start.

Experiments:
Format in all cases: biochemical
[1] = target: T1, Topoisomerase I (TOP1) (Homo sapiens, UniProt P11387, N722A); experiment: nicked-DNA accumulation/relaxation assay with purified recombinant TOP1 N722A
T1 construct: 6×His-tagged TOP1 (baculovirus, High Five cells)
T1 sequence (P11387 2-765 N722A): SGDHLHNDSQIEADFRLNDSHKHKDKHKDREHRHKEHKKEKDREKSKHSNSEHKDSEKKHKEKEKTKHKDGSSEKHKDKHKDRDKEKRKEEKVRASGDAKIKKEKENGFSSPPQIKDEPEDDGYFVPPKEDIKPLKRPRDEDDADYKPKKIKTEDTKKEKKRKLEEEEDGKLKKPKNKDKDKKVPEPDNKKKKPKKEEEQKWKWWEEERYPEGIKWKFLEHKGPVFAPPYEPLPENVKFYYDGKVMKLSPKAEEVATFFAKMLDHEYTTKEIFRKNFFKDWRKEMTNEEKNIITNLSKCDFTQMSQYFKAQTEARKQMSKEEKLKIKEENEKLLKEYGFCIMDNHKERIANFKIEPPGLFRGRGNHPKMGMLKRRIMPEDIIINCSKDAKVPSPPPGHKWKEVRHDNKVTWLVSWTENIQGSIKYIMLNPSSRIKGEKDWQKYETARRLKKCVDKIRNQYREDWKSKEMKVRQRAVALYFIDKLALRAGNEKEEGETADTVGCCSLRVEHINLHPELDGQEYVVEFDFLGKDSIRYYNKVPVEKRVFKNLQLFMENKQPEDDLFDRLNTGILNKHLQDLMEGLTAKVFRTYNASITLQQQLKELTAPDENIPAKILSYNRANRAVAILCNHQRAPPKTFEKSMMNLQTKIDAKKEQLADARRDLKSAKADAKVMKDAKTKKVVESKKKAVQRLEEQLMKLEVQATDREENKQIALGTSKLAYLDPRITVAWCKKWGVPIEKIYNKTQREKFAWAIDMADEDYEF

[2] = target: T2, Topoisomerase I (TOP1) (Homo sapiens, UniProt P11387); experiment: nicked-DNA accumulation/relaxation assay with purified recombinant wild-type TOP1
T2 construct: 6×His-tagged TOP1 (baculovirus, High Five cells)
T2 sequence (P11387 2-765): T1 sequence (P11387 2-765 N722A) with A721N

[3] = target: T3, Topoisomerase I (TOP1) (Homo sapiens, UniProt P11387, N722S); experiment: nicked-DNA accumulation assay with purified recombinant TOP1 N722S, […] Genz
T3 construct: 6×His-tagged TOP1 (baculovirus, High Five cells)
T3 sequence (P11387 2-765 N722S): T1 sequence (P11387 2-765 N722A) with A721S

CNCCn1c(=O)c2cc(OC)c(OC)cc2c2cnc3cc4c(cc3c21)OCO4 [Genz, 8,9-dimethoxy-5-(2-N-methylaminoethyl)-2,3-methylenedioxy-5H-dibenzo[c,h][1,6]naphthyridin-6-one]
nicked-DNA accumulation/relaxation assay with purified recombinant TOP1 N722A [1]: accumulation of nicked DNA on N722A and N722S proteins after treatment with Genz was higher than that on the wild type
nicked-DNA accumulation/relaxation assay with purified recombinant wild-type TOP [2]: slight accumulation of nicked DNA was also observed for the wild type
nicked-DNA accumulation assay with purified recombinant TOP1 N722S, 10 μM Genz [3]: The enhanced accumulation of nicked DNA appeared only in the N722S mutant after treatment with Genz
